{
  "source": "patent EP0017478A1",
  "about": "“Dialkoxy- and dioxacycloalkyl-alkyltheobromines, pharmaceutical compositions containing them and their preparation” (BEECHAM - WUELFING GmbH & Co. KG, priority 1979, dated 1980)",
  "key": {"[1]": {"test_system": "gastrocnemius muscle", "assay": "Measurement of muscle surface pO2 (multiwire-surface electrode, one femoral artery ligated to induce ischaemia)", "assay_type": "in vivo, Cats", "details": "12.5 mg/kg i.d., suspension in Methocel, n = 4; for Cs (significance coefficient = number of measuring sites with significant pO2 increase per total number of measuring sites) / ΔpO2 (mean pO2 increase in experiments with significant pO2 increase): anaesthetized cats; for E (efficiency-index = Cs x ΔpO2): control values E between 0.1 and 1.2 Torr", "description": "(§1) Cats of either sex were anaesthetized by i.p. injection of urethane/chloralosc (120/60 mg/kg). The intraduodenal (i.d.) administration of compounds was conducted by means of a plastic.catheter which was inserted into the duodenum following midline incision at the abdominal cavity.\nMeasurement of muscle surface p02. The skin above the measuring site (3-4 mm in diameter) was removed and one multiwire-surface electrode (Eschweiler, Kiel) was placed on the gastrocnemius muscle of each hindlimb. The femoral artery in one hindlimb was ligated in order to induce ischaemia. Muscle temperature was controlled by means of a thermocouple (Ellab, Copenhagen). The electrode current was measured every 6 to 8 s and collected for periods of 4 min (Hewlett-Packard programmable data logger system 3051 A). After each period, mean value and standard deviation was calculated."}, "[2]": {"assay": "Observation of toxic effects at the test dosages", "assay_type": "in vivo", "details": "at the test dosage 12.5 mg/kg i.d., cats", "description": "as §1"}},
  "data": [
    {"compound": "Cn1cnc2c1c(=O)n(CCCCC1(C)OCCO1)c(=O)n2C", "note": "[2-Methyl-2-(theobrominyl-butyl-4)-1,3-dioxalane]", "values": [
      {"measurement": "Cs (significance coefficient = number of measuring sites with significant pO2 increase per total number of measuring sites)", "setting": "[1]; hypoxic tissue", "value": 1},
      {"measurement": "ΔpO2 (mean pO2 increase in experiments with significant pO2 increase)", "setting": "[1]; hypoxic tissue", "value": 3.7, "unit": "Torr"},
      {"measurement": "E (efficiency-index = Cs x ΔpO2)", "setting": "[1]; hypoxic tissue", "value": 3.7, "unit": "Torr"},
      {"measurement": "Cs (significance coefficient = number of measuring sites with significant pO2 increase per total number of measuring sites)", "setting": "[1]; normoxic tissue", "value": 1},
      {"measurement": "ΔpO2 (mean pO2 increase in experiments with significant pO2 increase)", "setting": "[1]; normoxic tissue", "value": 4.8, "unit": "Torr"},
      {"measurement": "E (efficiency-index = Cs x ΔpO2)", "setting": "[1]; normoxic tissue", "value": 4.8, "unit": "Torr"},
      {"measurement": "toxic effects", "setting": "[2]", "value": "No toxic effects were observed"}
    ]}
  ]
}
